One series concerns the target T1, sigma-1 receptor (Cavia porcellus, UniProt Q60492).
T1 construct: from tissue; host or cells: guinea pig brain membrane homogenates
The series can be described thus: Competitive radioligand binding assay 2, guinea pig brain membrane homogenates. Conditions: read-out: Sigma-1 (Ki, nM) ±mean SEM. The protocol:
The affinity of candidate sigma-2 ligand compounds at sigma-1 and sigma-2 receptors was also determined by displacement of different known labeled sigma-2 or sigma-1 ligands. Filtration assays were conducted according the previously published procedure (Xu, et al., 2005). Test compounds were dissolved in N,N-Dimethylformamide (DMF), dimethyl sulfoxide (DMSO) or ethanol and then diluted in 50 mM Tris-HCl pH 7.4 buffer containing 150 mM NaCl and 100 mM EDTA. Membrane homogenates were made from guinea pig brain for sigma-1 binding assay and rat liver for sigma-2 binding assay. Membrane homogenates were diluted with 50 mM Tris-HCl buffer, pH 8.0 and incubated at 25° C. in a total volume of 150 uL in 96 well plates with the radioligand and test compounds with concentrations ranging from 0.1 nM to 10 uM. […] A Wallac 1450 MicroBeta liquid scintillation counter (Perkin Elmer, Boston, Mass.) was used to quantitate the bound radioactivity.
The binding affinity, Ki values was calculated using the method of Cheng and Prusoff. […]

The next series relates to CYP2D6, CYP3A4, CYP2C19. The series can be described thus: in vitro.
The next series deals with neuronal cultures. The series can be described thus: Nuclear intensity / morphology in neuronal cultures. Conditions: 24 hours.
In series [1] the test system is Abeta oligomer-induced synapse loss. The series can be described thus: Synapse loss assay (synaptophysin puncta) in primary neurons. Type of series: cell-based, rat. How it is done: (§1) In this assay, Abeta oligomers were brought in contact with mature primary neurons in culture and their binding was determined by immunohistochemistry (anti-Abeta antibody) and quantified by image processing. The amount of Abeta in neuronal dendrites is assessed by counting the number of labeled puncta on the neuritis. […] This labeling is associated with synapses, co-localizing with the post-synaptic scaffold protein PSD-95 (Lacor et al., '04). […] The number of synapses can also be quantified in this assay by immunofluorochemistry. Similar procedures for binding assays can be found in the literature. […] Review.
(§2) Primary hippocampal neuronal culture was established as in the membrane trafficking assay above. […] Pretreatment with compounds to be tested lasted for 1 hr and addition of Abeta oligomers or no oligomer (vehicle alone) in a final concentration of 70 ul was followed by incubation for an additional 23 hrs.
(§3) The plates were then washed 3× with PBS for 5 min each. The plates were blocked at RT for 1 hr in 5% goat serum and 0.5% Triton X-100 in PBS. […] Primary antibodies were incubated overnight at 4° C. The plates were then washed 3× with PBS for 5 min each. […] Secondary antibodies were incubated at RT for 1 hr. The plates were washed once with PBS. DAPI (4′,6-diamidino-2-phenylindole, Invitrogen) was then applied at 0.03 ug/ul and incubated at RT for 5 min, then washed with PBS.
(§4) Images were captured and analyzed with the Cellomics VTI automated microscope platform, using the Neuronal Profiling algorithm. For statistical analysis, a Tukey-Kramer pair-wise comparison with unequal variance was used.

Series [2] relates to Abeta oligomer binding to neurons. The series can be described thus: Abeta 1-42 oligomer binding assay in primary neurons. Type of series: cell-based, rat. How it is done: as §1, §2, §3, §4
Series [3] has as its system hAPP (Swedish/London) transgenic mice. Conditions: 0.5 mg/kg/day subcutaneous minipump, one month, 8 month old female mice. How it is done: In this study, rather than preventing deficits from occurring, deficits that were already established were treated. These studies were performed pursuant to a service contract by scientists who were blind to the experimental conditions. The compound was infused at 0.5 and 0.1 mg/kg/day for one month in 8 month old female mice via subcutaneous minipump and cognitive performance was tested in the Morris water maze, a test of hippocampal-based spatial learning and memory.
The swim speed was analyzed as part of the Morris measurements to determine if there were any motor or motivational deficits. Our vehicle is a 5% DMSO/5% Solutol, 90% saline mixture. The transgenic animals treated with a low dose (0.1 mg/kg/day) and a high dose (0.5 mg/kg/day) of compound. The average of three daily trials on each of four consecutive days were determined.
Escape latency measurements from the Morris water test were taken.
During the final four days of treatment, mice were tested to find the hidden platform in three trials/day. A computerized tracking system automatically quantified escape latency, or swim length.

In a further series the test system is 100 known receptors. The series can be described thus: Test for action at 100 known receptors. Type of series: binding, human. Conditions: 10 μM. How it is done:
It was also tested for its ability to block downstream signaling induced by agonists or antagonists of a given human receptor.

Series [4] relates to caspase-3 activity in neurons. The series can be described thus: Caspase-3 activity assay in neurons. Type of series: cell-based. The protocol: The activation of endogenous caspase-3 by sigma-2 receptor ligands was measured using the Caspase-3 Colorimetric Activity Assay Kit (Milipore, Billerica, Mass.) according to the manufacture's protocol. Briefly, MDA-MB 435 or MDA-MB23I cells were plated at 0.5×10^6 cells 100 mm dish. 24 hours after plating, sigma-2 ligands were added to the culture dishes to induce caspase 3 activation. The final concentration of the sigma-2 ligand was its EC50. 24 hours after treatment, cells were harvested, lysed in 300 uL of Cell Lysis Buffer, and centrifuged for 5 minutes at 10,000×g. Supernatant was collected and incubated with caspase-3 substrate, DEVD-pNA, for 2 hours at 37° C. […] Compounds IXa,IXb and II behaved like sigma-2 […] in both cancer cells and neurons.

Series [5] concerns SKOV-3 human ovarian cancer cell line. The series can be described thus: MTS tumor cell viability assay. Type of series: cell-based. Particulars: agonist/antagonist call relative to siramesine. How it is done:
The cytotoxicity of compounds shown below was determined using the CellTiter96 Aqueous One Solution Assay (Promega, Madison, Wis.). […] The plate was read at 490 nm in a Victor3 plate reader (PerkinElmer Life and Analytical Sciences, Shelton, Conn.). The EC^50 value, defined as the concentration of the sigma ligand required to inhibit cell viability by 50% relative to untreated cells, was determined from the dose response curve for each cell line.

T1 sequence (Q60492 whole entry): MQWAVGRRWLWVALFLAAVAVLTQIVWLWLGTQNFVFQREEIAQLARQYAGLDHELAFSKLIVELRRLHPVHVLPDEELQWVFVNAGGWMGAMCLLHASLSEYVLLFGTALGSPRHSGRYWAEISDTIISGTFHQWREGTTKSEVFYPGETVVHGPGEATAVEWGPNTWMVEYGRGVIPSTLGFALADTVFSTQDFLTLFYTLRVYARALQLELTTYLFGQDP

Take `COc1cc(CCC(C)NCc2ccc(C(F)(F)F)cc2)ccc1O` (stereo not drawn) [Compound II]: the Ki on sigma-1 receptor was found to be 108 ± 19.9 nM. Besides, in the series with CYP2D6, CYP3A4, CYP2C19, the inhibition at 10 µM lay within 46 to 73%. Also, the “Nuclear morphology / nuclear intensity compared to vehicle” value in the series with neuronal cultures is given as “did not decrease nuclear intensity”. Further, the “Share of Abeta oligomer-induced synapse loss eliminated” value in [1] (5 μM of compound) is 100%. In addition, the Block synapse loss in series [1] (Table 10B) was determined as 100%. Besides, the “Synapse number when dosed without Abeta oligomers” value in series [1] (compound in vehicle alone) is listed as “No effect”. Also, the “Abeta oligomer-induced synapse loss” value in series [1] (in words) is “completely eliminated this synaptic regression”. The Abeta binding result in series [2] (Compound II 15 uM) is “reduced to essentially control levels”. Moreover, in series [2] (FIG. 3D), the “Reduction of Abeta binding intensity (Abeta labeled puncta)” value is given as 18%. For the same compound, in series [2] (imaging processing algorithm), the “Partial block of binding of the Abeta oligomer ligand to neurons” value is “about 25%”. Besides, the “Cognitive performance, escape latency” value in [3] is “capable of improving cognitive performance”. Moreover, the “Number of receptors with activity >50% (assay window) out of 100” value with 100 known receptors came out at 5. Besides, in series [4], the “Induction of caspase-3 activity” value is “did not induce caspase-3 activity”. Besides, in [4] (24 hours), the “Block of caspase-3 activation caused by sigma-2 receptor agonist SV-119” value is “blocked caspase-3 activation”. For the same compound, the Action result in [5] is reported as “Antagonist”.

The Ki is a measure of affinity in units of concentration, obtained from inhibition or displacement. For orientation: inhibition means the percentage by which the read-out fell short of the control. Read a low inhibition as a weak effect.

Values taken from patent publication US20170197977A9, “COMPOSITIONS AND METHODS FOR TREATING NEURODEGENERATIVE DISEASE” (COGNITION THERAPEUTICS, INC., priority 2011, published 2017).
